# Where no end group is shown, it is not given here.
# Tests used:
# [1] = Solubility in aqueous solution; assay type: physicochemical
# [2] = test system: human peripheral blood lymphocytes (PBL); test: BrdU incorporation proliferation assay in human PBL; assay type: cell-based; settings: for proliferation stimulating activity, in words: conclusions from Table 1
# Method: The T101 peptide was tested for its ability to activate proliferation of mouse spleenocytes or thymocytes (two mouse strains were used: CD1 and Balb/C), as well as human peripheral blood lymphocytes (PBL). The proliferation activity was measured by 5-bromo 2′-deoxy-uridine (BrdU) incorporation into these cells.
# Human PBL were isolated on a Ficole gradient from blood taken from volunteers and then plated in 96-well plates, again using RPMI 1640+10% FCS+Pen/Str.
# The cells were treated with different concentrations of the peptide or saline (as above) and after 48 hours were labeled for 6 hours with BrdU and tested for BrdU incorporation into their nucleus.
# In the next experiment, several deletion mutants of the T101 peptide were constructed and synthesized. These mutants were tested for their ability to stimulate proliferation in human PBL. The right-hand column indicates the fold increase in proliferation over proliferation in untreated cells.
Substance,solubility in an aqueous solution [1],Fold Increase in proliferation over proliferation in untreated cells [2],"proliferation stimulating activity, in words [2]"
LHLWLSGEPVQSSGTKDMRSKSDSKRVSDKQLISKAVWWTFFLPSTLWERK [T101 peptide],soluble,,
Mut #1: 13 C-terminal amino acids of the T101 peptide: WTFFLPSTLWERK (listed as Homo sapiens),,2.5-3 Fold,very active
Mut #2: amino acids 6 to 28 of the T101 peptide: SGEPVQSSGTKDMRSKSDSKRVS (listed as Homo sapiens),,1.4-1.6 Fold,relatively low activity
Mut #3: 23 C-terminal amino acids of the T101 peptide: DKQLISKAVWWTFFLPSTLWERK (listed as Homo sapiens),,2.2-2.8 Fold,very active
Mut #4: 8 C-terminal amino acids of the T101 peptide: PSTLWERK (Table 1 prints PSTLTWERK) (listed as Homo sapiens),,1.1-1.3 Fold,almost no activity
Mut #5: amino acids 36 to 48 of the T101 peptide: AVWWTFFLPSTLW (listed as Homo sapiens),,2-2.2 Fold,
Mut #6: amino acids 36 to 51 of the T101 peptide in the reverse order: KREWLTSPLFFTWWVA (listed as Homo sapiens),,2-2.4 Fold,

# — patent US8071716B2, “Thymus-specific protein” (Immune System Key Ltd., priority 2004, dated 2011)
